Data: patent US10561704B2, “Compositions and methods for treating neuropsychiatric disorders using an endothelin-B receptor agonist” (MIDWESTERN UNIVERSITY, priority 2013, dated 2020)
*1 amine or outer side, *2 acyl side, *3 side chain or, on linkers, in order; H or OH if unused. Where no end group is shown, it is not given here. Suc = O=C(CCC(=O)[*:2])[*:1]

System: Aβ treated non-diabetic and diabetic rats
Assay: Morris water maze test for cognitive impairment in Aβ treated rats
Assay type: in vivo, Sprague-Dawley rats
Protocol: Amyloid-β (1-40) (Tocris Bioscience, Ellisville, Mo., USA), IRL-1620 [N-Succinyl-[Glu9, Ala11,15] endothelin 1] (American Peptide Co, Inc., Sunnyvale, Calif., USA) and BQ788 (American Peptide Co, Inc., Sunnyvale, Calif., USA) were dissolved in sterile saline and all the solutions were freshly prepared before injections. Ketamine (Butler Animal Health Supply, Dublin, Ohio, USA) was administered at a dose of 100 mg/kg, intraperitoneally (i.p.), and xylazine (Lloyd Laboratories, Shenandoah, Iowa, USA) was administered at a dose of 10 mg/kg, i.p. Rats were anesthetized with ketamine (100 mg/kg) and xylazine (10 mg/kg) and a lateral cerebral ventricle was cannulated by placing the rat in a stereotaxic (David Kopf Instruments, Tujunga, Calif., USA) instrument and fixing the cannula (coordinates: 1.0 mm lateral, 1.5 mm caudal to bregma and 4.0 mm deep from the bone). Cannula (Plastics One, Roanoke, Va., USA) was anchored with dental acrylic to three screws placed in the skull. The animals were allowed to recover from surgery for at least seven days. After 7 days, rats were treated with vehicle, Aβ (1-40), ETB receptor agonist and/or antagonist in the lateral cerebral ventricles using the implanted cannula. Vehicle, Aβ or ETB receptor agonist and antagonist were injected in a volume of 5 μl over a period of 5 minutes. Aβ (1-40) was used because it is highly soluble compared to Aβ (1-42) and induces endothelial dysfunction of both cerebral and systemic blood vessels in addition to memory deficit (Nitta et al., 1994; Niwa et al., 2000; Smith et al., 2004; Weller et al., 1998). Agents were delivered using 10 μl Hamilton syringe and agent treatments were carried out individually using separate 10 μl syringe. IRL-1620 was administered 1 hour after Aβ injection whereas BQ788 was administered 15 minutes prior to IRL-1620 injection. At the end of the experiment, placement of cannula was confirmed by injecting methylene blue dye (5 μl) and observing the site and extent of staining. All experiments were performed on day 15 (Briyal et al., 2011). Water maze testing was performed from day 15 to day 19 after which animals were euthanized. Animals used for oxidative stress measurements were euthanized on day 15 without being subjected to any behavioral testing. Diabetes mellitus type 2 was induced in rats belonging to the diabetic group by administering freshly prepared streptozotocin at the dose of 45 mg/kg, i.p. Streptozotocin was dissolved in 0.01 M sodium citrate buffer of pH 4.3. On day 3, blood glucose was obtained from the rat-tail and tested for hyperglycemia using the SureStep Complete Blood Glucose monitor kit. Rats with blood glucose levels above 11.1 mM were considered diabetic. Diabetic and non-diabetic animals were randomly divided into five groups (6 rats per group) (i) Sham, (ii) Aβ+Vehicle, (iii) Aβ+IRL-1620, (iv) Aβ+BQ788 (v) Aβ+BQ788+IRL-1620. Aβ (1-40) was administered intracerebroventricularly (i.c.v.) (20 μg in 3 equally divided doses i.e. 6.67 μg were injected 3 times for a total of 20 μg dose) on day 1, 7, and 14. Specific ETB receptor agonist, IRL-1620 (3 μg) and specific ETB receptor antagonist, BQ788 (10 μg) were administered i.c.v. daily for 14 days starting from day 1 of Aβ injection. The doses of IRL-1620 and BQ788 were selected on the basis of previous studies conducted in our laboratory (Leonard et al., 2011).
Spatial learning and memory of animals were tested in a MWM (Morris, 1984). […]

Row | Molecule | Escape latency, water maze acquisition (Aβ treated rats, day 3 and 4 of training, vs Aβ + vehicle) | Path length, water maze acquisition (Aβ treated rats, vs vehicle group) | Time spent in the target quadrant, probe trial (Aβ treated rats, vs vehicle treated Aβ rats) | Improvement in escape latency produced by IRL-1620 (Aβ rats, BQ788 given with IRL-1620) | Time spent in the target quadrant, probe trial (Aβ treated rats given BQ788)
1 | Suc-Asp-Glu-Glu-Ala-Val-Tyr-Phe-Ala-His-Leu-Asp-Ile-Ile-Trp (Suc-DEEAVYFAHLDIIW) [IRL-1620] | decreased significantly | shorter path lengths | increased | – | –
2 | CCCC[C@@H](NC(=O)[C@@H](Cc1cn(C(=O)OC)c2ccccc12)NC(=O)[C@H](CC(C)(C)C)NC(=O)N1[C@H](C)CCC[C@@H]1C)C(=O)O [BQ788, reference compound] | – | – | – | blocked | did not produce any improvement
